Measured values from patent publication US4734409A, “Cephalosporin derivative, process for producing the same and pharmaceutical composition containing the same” (Kureha Kagaku Kogyo Kabushiki Kaisha, priority 1984, dated 1988).

What was measured:
Escherichia coli W 3636 = experiment: Antibacterial activity, agar plate dilution method: E. coli W 3636; type: cell-based; details: Mueller-Hinton agar, 10^6 cells/ml, 37° C., 18 to 24 hours
Protocol: (§1) Antibacterial activity of the present compound was examined by agar plate dilution method while following the standard method of Japan Society of Chemotherapy and using the following strain:
(§2) 3. Escherichia coli W 3636
(§3) Namely, after inoculating each bacteria on Mueller-Hinton culture medium, the inoculum was incubated for 18 to 48 hours at 37° C. and after adjusting the number of cells of each bacteria so as to contain 10^6 in one ml, the thus prepared specimen was used as the test bacterial liquid.
(§4) Each of the present substances (the substance in Example 1 and the substance in Example 2) was dispersed in aqueous physiological saline solution at a predetermined concentration and the thus prepared dispersion was added to 9 times by volume of the culture medium for examining sensitivity (Mueller-Hinton culture medium) to prepare agar plates.
(§5) On each agar plate, each of the test bacterial liquid was smeared at a width of about 2 cm, and the thus smeared agar plate was incubated for 18 to 24 hours at 37° C.

[1] = system: Pseudomonas aeruginosa IAM 1514; experiment: Antibacterial activity, agar plate dilution method: P. aeruginosa IAM 1514; type: cell-based; details: Mueller-Hinton agar, 10^6 cells/ml, 37° C., 18 to 24 hours
Protocol: (§6) Antibacterial activity of the present compound was examined by agar plate dilution method while following the standard method of Japan Society of Chemotherapy and using the following strain: 5. Pseudomonas aeruginosa IAM 1514 Namely, after inoculating each bacteria on Mueller-Hinton culture medium, the inoculum was incubated for 18 to 48 hours at 37° C. and after adjusting the number of cells of each bacteria so as to contain 10^6 in one ml, the thus prepared specimen was used as the test bacterial liquid. Each of the present substances (the substance in Example 1 and the substance in Example 2) was dispersed in aqueous physiological saline solution at a predetermined concentration and the thus prepared dispersion was added to 9 times by volume of the culture medium for examining sensitivity (Mueller-Hinton culture medium) to prepare agar plates. On each agar plate, each of the test bacterial liquid was smeared at a width of about 2 cm, and the thus smeared agar plate was incubated for 18 to 24 hours at 37° C.

[2] = system: Escherichia coli IFO 12734; experiment: Therapeutic effect on the experimental infectious disease on mice; type: in vivo, Escherichia coli (infected ddY-SPF mice)
Description: Therapeutic effect of the present compounds on the infection was examined as follows.

[3] = system: bacteria (strains of Table 3); experiment: Antibacterial activity, agar plate dilution method, overall; type: cell-based; details: as seen from Table 3
Protocol: as §1
2. Staphylococcus aureus IAM 1011
as §2
4. Proteus vulgaris IAM 1025
5. Pseudomonas aeruginosa IAM 1514
6. Serratia marcescens IAM 1223
as §3, §4, §5

[4] = system: Staphylococcus aureus IAM 1011; experiment: in vitro; type: in vitro ADME
Protocol: As a model experiment for verifying the stability of the present compound in Example 1 in the living body, the following procedures were adopted. The same test solution of the present compound as in Example 6 was prepared by mixing 0.1 ml of the dispersion of the present compound and 0.9 ml of S-9 mix, and shaking the mixture for 20 min at 37° C. As a control, a mixture of 0.1 ml of the dispersion of the present compound and 0.9 ml of the 0.2M phosphoric acid buffer was shaken for 20 min at 37° C. As the test bacteria, Staphylococcus aureus IAM 1011 was inoculated in Mueller-Hinton culture medium, and after incubating the inoculum for 18 hours at 37° C., the number of bacteria in the medium was adjusted to 10^8 /ml and the thus adjusted, cultured medium was mixed with 50 times by volume of Mueller-Hinton culture medium. After preparing an agar plate from the mixture, a penicillin cup of 8 mm in diameter was placed on the agar plate, and 0.1 ml of the test solution prepared above was put into the cup. After leaving the thus prepared agar plate for 2 hours at 4° C., the agar plate was subjected to culture for 18 hours at 37° C. to measure the diameter of a proliferation-inhibiting circle appearing on the agar plate. From a calibration curve preliminarily prepared between the concentration of the present compound and the diameter of the proliferation-inhibiting circle, the concentration of the present compound in the test solution and the control was obtained. By using the thus obtained concentration, the rate of retaining the antibacterial activity (Rate (%)) was calculated from the following formula and is shown in Table 5. [formula] As a comparative experiment, the same precedures were carried out except for using Cefotax (a commercialized cephalosporin derivative sold by CHUGAI Pharmaceuticla Co., Ltd., which is represented by the following formula), [drawing 21] instead of the present compound produced in Example 1.

[5] = system: Staphylococcus aureus IAM 1011; experiment: Antibacterial activity, agar plate dilution method: S. aureus IAM 1011; type: cell-based; details: Mueller-Hinton agar, 10^6 cells/ml, 37° C., 18 to 24 hours
Protocol: as §6, with “2. Staphylococcus aureus” for “5. Pseudomonas aeruginosa”, “1011” for “1514”

[6] = system: Serratia marcescens IAM 1223; experiment: Antibacterial activity, agar plate dilution method: S. marcescens IAM 1223; type: cell-based; details: Mueller-Hinton agar, 10^6 cells/ml, 37° C., 18 to 24 hours
Protocol: as §6, with “6. Serratia marcescens” for “5. Pseudomonas aeruginosa”, “1223” for “1514”

Row | SMILES | minimal inhibitory concentration (MIC), E. coli W 3636 (Escherichia coli W 3636) | minimal inhibitory concentration (MIC), P. aeruginosa IAM 1514 [1] | survival 7 days after inoculation ([2]; 25 mg/kg orally, 1 time, 1 hour after intraperitoneal inoculation of 1.4×10^3 cells, all untreated mice died on the second day) | antibacterial activity (in words) [3] | Rate of retaining the antibacterial activity (in words) [4] | minimal inhibitory concentration (MIC), S. aureus IAM 1011 [5] | minimal inhibitory concentration (MIC), S. marcescens IAM 1223 [6] | survival 7 days after inoculation ([2]; intravenous administration, dose not given)
1 | CO/N=C(\C(=O)N[C@@H]1C(=O)N2C(C(=O)OCOC(=O)C(C)(C)C)=C(CSc3nnc(C)s3)CS[C@H]12)c1csc(NC(=O)C(Cl)Cl)n1 [Example 2] | ≥ 100 | ≥ 100 | all the mice administered with the present compound survived | shows a low antibacterial activity | the same result as that obtained in using the present compound produced in Example 1 | ≥ 100 | ≥ 100 | 
2 | CO/N=C(\C(=O)N[C@@H]1C(=O)N2C(C(=O)O)=C(CSc3nnc(C)s3)CS[C@H]12)c1csc(NC(=O)C(Cl)Cl)n1 [Example 1, 7β-[2-(2-dichloroacetamido-4-thiazolyl)-(Z)-2-methoxyiminoacetamido]-3-[(2-methyl-1,3,4-thiadiazol-5-yl)thiomethyl]-3-cephem-4-carboxylic acid] | 0.4 | 50 |  | shows an antibacterial activity | superior to a conventional commerciallized cephalosporin derivative | 0.78 | 0.4 | All the ddY-SPF mice administered with the present compound produced in Example 1 via intravenation survived
